This note sets out measurements from patent US8541573B2, “Substituted sulfonamide compounds” (Gruenenthal GmbH, priority 2008, dated 2013).

Test [1] deals with T1, human B1R (Homo sapiens, UniProt P46663).
T1 construct: expressed in transfected cells; host or cells: CHO K1 cells
T1 sequence (P46663 1-353): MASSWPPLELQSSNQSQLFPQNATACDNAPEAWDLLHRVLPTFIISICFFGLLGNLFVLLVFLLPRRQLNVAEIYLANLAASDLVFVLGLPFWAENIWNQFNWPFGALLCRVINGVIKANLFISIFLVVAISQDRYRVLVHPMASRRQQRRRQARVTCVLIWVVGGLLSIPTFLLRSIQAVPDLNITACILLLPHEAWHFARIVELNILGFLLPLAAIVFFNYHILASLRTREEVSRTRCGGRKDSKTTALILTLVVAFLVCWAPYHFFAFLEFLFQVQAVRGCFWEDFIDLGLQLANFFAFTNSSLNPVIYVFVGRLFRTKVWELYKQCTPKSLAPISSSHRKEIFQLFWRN
The experiment in a line: Functional investigation on the bradykinin 1 receptor (B1R), cell-based fluorescent calcium-mobilization assay (FLIPR/Novostar), human. As to conditions: 10 μM test substance; CHO K1 cells stably transfected with human B1R gene; agonist Lys-Des-Arg9-bradykinin at EC80; % inhibition compared with maximum achievable inhibition; read-out: B1R antagonism, human [10 μM] % inhibition. An outline of the steps:
(§1)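 Stably transfected CHO K1 cells loaded with Fluo-4-AM; fluorescence peak read by FLIPR/Novostar (ex 488, em 540 nm). Test compounds at 10 μM give % activation vs Lys-Des-Arg9-BK (human) or Des-Arg9-BK (rat); after 6-20 min, agonist added at EC80 and % inhibition vs maximum achievable inhibition derived.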

Test [2] addresses T2, B1R of rats (Rattus norvegicus, UniProt P97583).
T2 construct: expressed in transfected cells; host or cells: CHO K1 cells
T2 sequence (P97583 1-337): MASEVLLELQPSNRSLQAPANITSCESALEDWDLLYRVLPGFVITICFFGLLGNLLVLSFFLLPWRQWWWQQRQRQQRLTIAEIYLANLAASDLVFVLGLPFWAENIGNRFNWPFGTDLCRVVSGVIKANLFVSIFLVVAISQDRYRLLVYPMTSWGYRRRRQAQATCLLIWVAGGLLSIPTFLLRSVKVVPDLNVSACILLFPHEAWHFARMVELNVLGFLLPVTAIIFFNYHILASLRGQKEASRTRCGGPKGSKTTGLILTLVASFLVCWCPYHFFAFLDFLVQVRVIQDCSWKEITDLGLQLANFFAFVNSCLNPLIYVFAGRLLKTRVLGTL
Nature of the test: Functional investigation on the bradykinin 1 receptor (B1R), cell-based fluorescent calcium-mobilization assay (FLIPR/Novostar), rat. As to conditions: 10 μM test substance; CHO K1 cells stably transfected with rat B1R gene; agonist Des-Arg9-bradykinin at EC80; % inhibition compared with maximum achievable inhibition; read-out: B1R antagonism, rat [10 μM] % inhibition. An outline of the steps: as §1

In general, inhibition refers to the change of the read-out against control, counted positive when it falls. For `Cc1cc(S(=O)(=O)N2CCCCC2CCC(=O)N2CCC(CNC(=O)c3ccncc3)(N3CCN(C)CC3)CC2)c(C)cc1Cl` (stereo not drawn) [Example 26, N-((1-(3-(1-(4-chloro-2,5-dimethylphenylsulfonyl)piperidin-2-yl)propanoyl)-4-(4-methylpiperazin-1-yl)piperidin-4-yl)methyl)isonicotinamide], the results for the inhibition at 10 µM in test [1] and in test [2] were 103% and 45%, respectively.
On the same counts, the results for `COc1cc(C)c(S(=O)(=O)N(C)CCOCC(=O)N2CCC(CNC(=O)c3ccccn3)(N3CCN(C)CC3)CC2)c(C)c1` [Example 25, N-((1-(2-(2-(4-methoxy-N,2,6-trimethylphenylsulfonamido)ethoxy)acetyl)-4-(4-methylpiperazin-1-yl)piperidin-4-yl)methyl)picolinamide] are 103% and 101%.
On the same counts, the results for `COc1cc(C)c(S(=O)(=O)N2CCCCC2COCC(=O)N2CCC(CNC(=O)c3ccccn3)(N3CCN(C)CC3)CC2)c(C)c1` (stereo not drawn) [Example 21, N-((1-(2-((1-(4-methoxy-2,6-dimethylphenylsulfonyl)piperidin-2-yl)methoxy)acetyl)-4-(4-methylpiperazin-1-yl)piperidin-4-yl)methyl)picolinamide] are 103% and 101%.
In the same order, the values of `COc1cc(C)c(S(=O)(=O)N(C)CCOCC(=O)N2CCC(CNC(C)=O)(N3CCN(c4ccncc4)CC3)CC2)c(C)c1` [Example 41, N-((1-(2-(2-(4-methoxy-N,2,6-trimethylphenylsulfonamido)ethoxy)acetyl)-4-(4-(pyridin-4-yl)piperazin-1-yl)piperidin-4-yl)methyl)acetamide] are 100% and 102%.
As to `COc1cc(C)c(S(=O)(=O)N(C)CCOCC(=O)N2CCC(CNC(C)=O)(N3CCN(C)CC3)CC2)c(C)c1` [Example 31, N-((1-(2-(2-(4-methoxy-N,2,6-trimethylphenylsulfonamido)ethoxy)acetyl)-4-(4-methylpiperazin-1-yl)piperidin-4-yl)methyl)acetamide], the inhibition at 10 µM is 103% in test [1] and 101% in test [2].
Consider `CC(=O)NCC1(N2CCN(c3ccncc3)CC2)CCN(C(=O)COCC2CCc3ccccc3N2S(=O)(=O)c2ccc(Cl)c(Cl)c2)CC1` (stereo not drawn) [Example 17, N-((1-(2-((1-(3,4-dichlorophenylsulfonyl)-1,2,3,4-tetrahydroquinolin-2-yl)methoxy)acetyl)-4-(4-(pyridin-4-yl)piperazin-1-yl)piperidin-4-yl)methyl)acetamide], for which the inhibition at 10 µM in test [1] was determined as 104%; in test [2] it was 101%.
On the same counts, the results for `CN1CCN(C2(CNC(=O)Cc3ccccc3)CCN(C(=O)CC3CCCCN3S(=O)(=O)c3cccc(C(F)(F)F)c3)CC2)CC1` (stereo not drawn) [Example 4, N-((4-(4-methylpiperazin-1-yl)-1-(2-(1-(3-(trifluoromethyl)phenylsulfonyl)piperidin-2-yl)acetyl)piperidin-4-yl)methyl)-2-phenylacetamide] are 67% and 59%.
On the same counts, the results for `Cc1cc(S(=O)(=O)N2CCCCC2CCC(=O)N2CCC(CNC(=O)c3cccnc3)(N3CCN(C)CC3)CC2)c(C)cc1Cl` (stereo not drawn) [Example 33, N-((1-(3-(1-(4-chloro-2,5-dimethylphenylsulfonyl)piperidin-2-yl)propanoyl)-4-(4-methylpiperazin-1-yl)piperidin-4-yl)methyl)nicotinamide] are 103% and 100%.
Regarding `CC(=O)NCC1(N2CCN(C)CC2)CCN(C(=O)CCC2CCCCN2S(=O)(=O)c2cc(C)c(Cl)cc2C)CC1` (stereo not drawn) [Example 2, N-((1-(3-(1-(4-chloro-2,5-dimethylphenylsulfonyl)piperidin-2-yl)propanoyl)-4-(4-methylpiperazin-1-yl)piperidin-4-yl)methyl)acetamide], the inhibition at 10 µM in test [1] turned out to be 81%; in test [2] it was 74%.
On the same counts, the results for `COc1cc(C)c(S(=O)(=O)N2CCCCC2COCC(=O)N2CCC(CNC(C)=O)(N3CCN(c4ccncc4)CC3)CC2)c(C)c1` (stereo not drawn) [Example 22, N-((1-(2-((1-(4-methoxy-2,6-dimethylphenylsulfonyl)piperidin-2-yl)methoxy)acetyl)-4-(4-(pyridin-4-yl)piperazin-1-yl)piperidin-4-yl)methyl)acetamide] are 103% and 101%.
On the same counts, the results for `COc1cc(C)c(S(=O)(=O)N(C)CCOCC(=O)N2CCC(CNC(=O)c3ccncc3)(N3CCN(C)CC3)CC2)c(C)c1` [Example 1, N-((1-(2-(2-(4-methoxy-N,2,6-trimethylphenylsulfonamido)ethoxy)acetyl)-4-(4-methylpiperazin-1-yl)piperidin-4-yl)methyl)isonicotinamide] are 107% and 101%.
Take `COc1cc(C)c(S(=O)(=O)N2c3ccccc3C[C@H]2COCC(=O)N2CCC(CNC(=O)c3ccncc3)(N3CCN(C4CC4)CC3)CC2)c(C)c1` [Example 45, (S)—N-((4-(4-Cyclopropylpiperazin-1-yl)-1-(2-((1-(4-methoxy-2,6-dimethylphenylsulfonyl)indolin-2-yl)methoxy)acetyl)piperidin-4-yl)methyl)isonicotinamide]: the figures for the inhibition at 10 µM in test [1] and in test [2] were 100% and 102%, respectively.
On the same counts, the results for `CC(=O)NCC1(N2CCN(C)CC2)CCN(C(=O)COCC2CCc3ccccc3N2S(=O)(=O)c2ccc(Cl)c(Cl)c2)CC1` (stereo not drawn) [Example 7, N-((1-(2-((1-(3,4-dichlorophenylsulfonyl)-1,2,3,4-tetrahydroquinolin-2-yl)methoxy)acetyl)-4-(4-methylpiperazin-1-yl)piperidin-4-yl)methyl)acetamide] are 102% and 105%.
In the same order, the values of `CC(=O)NCC1(N2CCN(c3ccncc3)CC2)CCN(C(=O)CCC2CCCCN2S(=O)(=O)c2cc(C)c(Cl)cc2C)CC1` (stereo not drawn) [Example 11, N-((1-(3-(1-(4-chloro-2,5-dimethylphenylsulfonyl)piperidin-2-yl)propanoyl)-4-(4-(pyridin-4-yl)piperazin-1-yl)piperidin-4-yl)methyl)acetamide] are 102% and 75%.
On the same counts, the results for `COc1cc(C)c(S(=O)(=O)N2CCCCC2COCC(=O)N2CCC(CNC(=O)c3ccncc3)(N3CCN(C)CC3)CC2)c(C)c1` (stereo not drawn) [Example 28, N-((1-(2-((1-(4-methoxy-2,6-dimethylphenylsulfonyl)piperidin-2-yl)methoxy)acetyl)-4-(4-methylpiperazin-1-yl)piperidin-4-yl)methyl)-isonicotinamide] are 102% and 102%.
